Results as given in article PMC8125234, “Cardiolipin Stabilizes and Increases Catalytic Efficiency of Carnitine Palmitoyltransferase II and Its Variants S113L, P50H, and Y479F” (International Journal of Molecular Sciences, 2021).
Changes are numbered by the printed parent chain.

Key:
CPT II variant Y479F [1] = biological target: T1, CPT II variant Y479F (Homo sapiens, UniProt P23786, Y479F); assay: Influence of CL on the enzyme activity; format: biochemical
T1 construct: made in house; host or cells: Escherichia coli BL21Gold DE
T1 sequence (P23786 26-658 Y479F): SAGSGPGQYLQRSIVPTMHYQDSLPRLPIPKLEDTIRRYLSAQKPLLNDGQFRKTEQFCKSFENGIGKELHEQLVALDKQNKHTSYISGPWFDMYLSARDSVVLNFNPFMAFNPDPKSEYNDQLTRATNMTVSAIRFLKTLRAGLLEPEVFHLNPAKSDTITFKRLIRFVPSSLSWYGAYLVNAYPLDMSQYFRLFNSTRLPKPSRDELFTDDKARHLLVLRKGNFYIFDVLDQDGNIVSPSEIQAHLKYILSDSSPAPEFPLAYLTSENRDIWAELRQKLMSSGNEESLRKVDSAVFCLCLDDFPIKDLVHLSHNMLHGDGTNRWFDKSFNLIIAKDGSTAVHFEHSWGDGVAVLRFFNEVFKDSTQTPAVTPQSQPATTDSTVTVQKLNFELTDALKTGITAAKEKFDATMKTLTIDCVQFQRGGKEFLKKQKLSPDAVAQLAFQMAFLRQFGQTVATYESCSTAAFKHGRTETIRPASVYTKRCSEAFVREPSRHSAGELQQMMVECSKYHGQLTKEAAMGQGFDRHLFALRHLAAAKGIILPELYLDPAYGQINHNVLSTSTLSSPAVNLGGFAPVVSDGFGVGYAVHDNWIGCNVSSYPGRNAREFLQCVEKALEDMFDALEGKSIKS
Experimental: Then, the effect of CL, as a potential stabilizing agent, was investigated in the activity assay. Therefore, 0.1 mg/mL recombinant enzyme was incubated with various concentrations of CL (0.125, 0.25 or 0.5 mM) or buffer at 30 and 42 °C, respectively.
Before activity measurements, the storage buffer of the enzymes was replaced with assay buffer (50 mM KH2PO4, 120 mM KCl, 1 mM EDTA-Na4) using vivaspin turbo 4 tubes (Satorius Stedim biotech GmbH, Göttingen, Germany) at 4 °C. The pH of assay buffer was adjusted with KOH to 7.4. The storage buffer was diluted at least 1:500 in assay buffer. In addition, before each experimental set up, the protein samples were centrifuged at 16,000× g for 5 min at 4 °C to remove any micro-aggregates. After that, the protein concentration was determined using bicinchoninic acid (BCA) protein assay kit (Thermo Fisher Scientific GmbH, Berlin, Germany). The enzyme activity of recombinant CPT II was performed following Rufer et al. with modifications described elsewhere. […] After pre-conditioning the mixture to 25 °C for 2 min, the reaction was started by adding 15 nM of recombinant enzyme. The reverse reaction of CPT II was detected with the enzyme activity assay. CPT II catalyzed the transfer of fatty acid residue from Pal-CoA to L-carnitine with release of CoA and Pal-carnitine. The released CoA was then detected by the reaction of the free thiol group with DTNB, forming 5-mercapto-(2-nitrobenzoic acid). This compound has a molar extinction coefficient of 13,600 M^−1 cm^−1 at a wavelength of 410 nm, and its formation was followed spectroscopically. […] The slope of the progress curve was used to determine the reaction velocity.
The purified enzymes were incubated at different temperatures (30, 37, 40 and 42 °C) using a protein concentration of 1 mg/mL during the incubation periods to investigated the half-lives of WT and variants. 0.1 mg/mL enzyme was incubated with or without CL (0.125, 0.25 and 0.5 mM) in the assay buffer. The enzyme activities were determined by adding 15 nM of pre-incubated enzyme according to Section 4.3 after various incubation times up to 60 min at an assay temperature of 25 °C. Experiments were done at least three times independently as double determination.

CPT II variant S113L [2] = biological target: T2, CPT II variant S113L (Homo sapiens, UniProt P23786, S113L); assay: Lipid binding assay (membrane lipid strips); settings: 0.4 mg enzyme, 100 pmol lipid spots
T2 construct: made in house; host or cells: Escherichia coli BL21Gold DE
T2 sequence (P23786 26-658 S113L): T1 sequence (P23786 26-658 Y479F) with S88L, F454Y
Experimental: (§1) Direct interaction of CPT II WT and variants with phospholipids of the mitochondrial membrane was assessed using membrane lipid strips (Echelon Biosciences, Salt Lake City, Utah, USA). The membrane was spotted with 100 pmol of various cell membrane lipids. The assay was performed following manufacturer’s instructions with some modifications explained in the following. At first, the membrane was washed twice in phosphate buffered saline (PBS). After 1 h incubation with blocking solution (3% BSA fatty acid-free in PBS) at room temperature, the membrane was incubated with purified CPT II WT or variant (final amount 0.4 mg protein) for 2 h at 4 °C. After three washing steps, a-His-Probe (H3) mouse monoclonal antibody (Santa Cruz Biotech, Santa Cruz, CA, USA, 1:1000 dilution in PBS containing 3% BSA) was added to the membrane over night at 4 °C. The membrane was washed three times with PBS and incubated with mouse IgG horseradish peroxidase-linked whole antibody (from sheep, Amersham, Little Chalfont, Buckinghamshire, UK) for 1 h at 4 °C. The interaction was visualized by ECL Western blotting detection reagents (Amersham, Little Chalfont, Buckinghamshire, UK).

CPT II variant Y479F [3] = biological target: T1, CPT II variant Y479F; assay: Lipid binding assay (membrane lipid strips); settings: 0.4 mg enzyme, 100 pmol lipid spots
Experimental: as §1

[4] = test system: recombinant human CPT II WT; design: method as in PMID 13534673; settings: cited from earlier work
CPT II variant S113L [5] = biological target: T2, CPT II variant S113L; design: method as in PMID 13534673; settings: cited from earlier work

Increase of the enzymatic activity by CL (CPT II variant Y479F [1]): 1.8 fold
Maximal Enzymatic Activity (CPT II variant Y479F [1]; 0.5 mM CL, w/o CL = 100): 151.7 ± 7.6%
Enzymatic activity in the presence of CL (CPT II variant Y479F [1]; before incubation periods): 175%
Signal for interaction on membrane lipid strips (CPT II variant S113L [2]): clearly proven
Signal for interaction on membrane lipid strips (CPT II variant Y479F [3]): clearly proven
Substance: Cardiolipin [CL]
Effect of CL on enzyme activity [4]: activity-increasing effect
Effect of CL on enzyme activity (CPT II variant S113L [5]): no benefit
